From patent publication US8865734B2 (priority 2010, dated 2014)
Converted amounts (≈) assume the structure as drawn.

Legend:
[1] = tested on: in vitro grown Mycobacteria (M. tuberculosis); assay: QUM: Quantification of in vitro grown Mycobacteria (in vitro growth fluorescence assay); format: cell-based; details: Mycobacterium tuberculosis; MIC, 80% bacterial growth inhibition; in vitro growth; read-out: QUM
Summary of the method: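 Mycobacterium tuberculosis grown in vitro was quantified by fluorescence across compound dose responses. MIC is defined as the minimum concentration producing 80% growth inhibition.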

[2] = tested on: M. tuberculosis inside the host macrophage; assay: QIM: Quantification of Intracellular Mycobacteria (intracellular growth assay, phenotypic cell-based); details: Mycobacterium tuberculosis; MIC, 80% bacterial growth inhibition; intracellular growth; read-out: QIM
Summary of the method: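 Dose-response testing of intracellular mycobacterial replication in infected macrophages, a cell-based screening format; MIC is defined as the lowest concentration achieving 80% inhibition of bacterial growth.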

## CCc1nc2cnccn2c1C(=O)NCc1ccc(-c2ccc(Cl)cc2)cc1 [Compound 141, N-((4′-Chlorobiphenyl-4-yl)methyl)-2-ethylimidazo[1,2-a]pyrazine-3-carboxamide]
[1]
  MIC: < 1 µM
[2]
  MIC: < 1 µM

## CCc1nc2ccccn2c1C(=O)NCc1ccc2ccn(C)c2c1 [Compound 58, 2-Ethyl-N-((1-methyl-1H-indol-6-yl)methyl)imidazo[1,2-a]pyridine-3-carboxamide]
[1]
  MIC: 1 to 20 µM (≈ 0.332 to 6.65 µg/mL)
[2]
  MIC: 1 to 20 µM (≈ 0.332 to 6.65 µg/mL)

## CCc1nc2ccc([N+](=O)[O-])cn2c1C(=O)NCc1ccc(OC(F)(F)F)cc1 [Compound 149, 2-Ethyl-6-nitro-N-(4-(trifluoromethoxy)benzyl)imidazo[1,2-a]pyridine-3-carboxamide]
[1]
  MIC: > 20 µM
[2]
  MIC: > 20 µM

## CCc1nc2cc([N+](=O)[O-])ccn2c1C(=O)NCc1ccc(OC(F)(F)F)cc1 [Compound 150, 2-Ethyl-7-nitro-N-(4-(trifluoromethoxy)benzyl)imidazo[1,2-a]pyridine-3-carboxamide]
[1]
  MIC: > 20 µM
[2]
  MIC: > 20 µM

## CCc1nc2cc(Cl)ccn2c1C(=O)NCc1ccc(-c2ccccc2C)cc1 [Compound 96, 7-Chloro-2-ethyl-N-((2′-methylbiphenyl-4-yl)methyl)imidazo[1,2-a]pyridine-3-carboxamide]
[1]
  MIC: < 1 µM
[2]
  MIC: < 1 µM

## CCc1nc2ccc(Cl)cn2c1C(=O)NCc1ccc(-c2ccc(Cl)cc2)cc1 [Compound 83, 6-Chloro-N-((4′-chlorobiphenyl-4-yl)methyl)-2-ethylimidazo[1,2-a]pyridine-3-carboxamide]
[1]
  MIC: < 1 µM
[2]
  MIC: < 1 µM

## CCc1nc2cc(Cl)ccn2c1C(=O)NCc1ccc(N2CCN(c3ccccc3)CC2)cc1 [Compound 111, 7-Chloro-2-ethyl-N-(4-(4-phenylpiperazin-1-yl)benzyl)imidazo[1,2-a]pyridine-3-carboxamide]
[1]
  MIC: < 1 µM
[2]
  MIC: < 1 µM

## CCc1nc2cc(Cl)ccn2c1C(=O)NCc1ccc(Br)cc1 [Compound 101, N-(4-Bromobenzyl)-7-chloro-2-ethylimidazo[1,2-a]pyridine-3-carboxamide]
[1]
  MIC: 1 to 20 µM (≈ 0.393 to 7.85 µg/mL)
[2]
  MIC: < 1 µM

## CCc1nc2ccc(Cl)cn2c1C(=O)NCc1ccn(-c2ccc(C(F)(F)F)cc2)n1 [Compound 233, 6-Chloro-2-ethyl-N-4-((1-(4-(trifluoromethyl)phenyl)-1H-pyrazol-3-yl)methyl)imidazo[1,2-a]pyridine-3-carboxamide]
[1]
  MIC: > 20 µM
[2]
  MIC: > 20 µM

## CCc1nc2ccc(Cl)cn2c1C(=O)N1CCC(OCc2ccc(OC(F)(F)F)cc2)CC1 [Compound 230, (6-Chloro-2-ethylimidazo[1,2-a]pyridin-3-yl)(4-(4-(trifluoromethoxy)benzyloxy)piperidin-1-yl)methanone]
[1]
  MIC: > 20 µM
[2]
  MIC: > 20 µM

## CCCCCNc1ccc(CNC(=O)c2c(CC)nc3cc(Cl)ccn23)cc1 [Compound 107, 7-Chloro-2-ethyl-N-(4-(pentylamino)benzyl)imidazo[1,2-a]pyridine-3-carboxamide]
[1]
  MIC: < 1 µM
[2]
  MIC: < 1 µM

## CCc1nc2cc(Cl)c(Cl)cn2c1C(=O)NCc1ccc(N2CCN(Cc3ccc(F)cc3)CC2)cc1 [Compound 175, 6,7-Dichloro-2-ethyl-N-(4-(4-(4-fluorobenzyl)piperazin-1-yl)benzyl)imidazo[1,2-a]pyridine-3-carboxamide]
[1]
  MIC: > 20 µM
[2]
  MIC: < 1 µM

## Cc1nc2ccccn2c1C(=O)NCc1ccncc1 [Compound 14, 2-Methyl-N-(pyridin-4-ylmethyl)imidazo[1,2-a]pyridine-3-carboxamide]
[1]
  MIC: > 20 µM
[2]
  MIC: > 20 µM

## CCOC(=O)c1c(C)nc2ccc(-c3ccccc3)cn12 [Compound 4, Ethyl 2-methyl-6-phenylimidazo[1,2-a]pyridine-3-carboxylate]
[1]
  MIC: > 20 µM
[2]
  MIC: > 20 µM
